One may read the Kd as the free concentration of one partner at which half of the binding sites on the other are occupied at equilibrium, for simple one-to-one binding.

From PMC6204900 (The Journal of Biological Chemistry, 2018) come the findings set out here.

Test [1] concerns the target T1, IGF-1R (Homo sapiens, UniProt P08069).
T1 construct: expressed in transfected cells; host or cells: CHO-K1 (ATCC) stably transfected with pcDNA3-IGF-1R vector (gift of R. O'Connor); polyclonal CHO-R+ population
Briefly: Whole-cell receptor-binding assay, IGF-1R in transfected mouse embryonic fibroblasts. The source says:
(§1) Human IM-9 lymphocytes (containing IR-A) and IGF-1R null mouse embryonic fibroblasts, stably transfected with either human IR-B or human IGF-1R, were employed for a whole-cell receptor-binding assay as described previously ([32], [33], [42]). For details, see supporting information.
(§2) ULTIMATE 3000 RSLCnano (Dionex, Thermo Scientific) coupled to TripleTOFTM 5600 (SCIEX).
The extent of iodination in a specific position in the three fractions containing iodinated Tyr residues […]
was approximated by comparing the area of peaks corresponding to peptides containing TyrB16, […]
(§3) TyrB26 and TyrB32 and their iodinated counterparts.
Human IM-9 lymphocytes (containing IR-A) and IGF-1R null mouse embryonic fibroblasts, […]
stably transfected with either human IR-B or human IGF-1R, were employed for whole cell receptor- […]
binding assay as described previously (3-5). […]
binding buffer (100 mM HEPES, 100 mM NaCl, 5 mM KCl, 1.3 mM MgSO4, 1 mM EDTA, 10 mM […]
glucose, 15 mM NaOAc, 1 % w/v BSA, pH 7.6). After incubation 2 x 200 µL were centrifuged at […]
(§4) 15,000 x g for 10 min in microfuge tubes containing 200 µL of pre-cooled HEPES binding buffer.
Radioactive pellets were counted using the Gamma Counter Wizard 1470 (Perkin Elmer). Binding data […]
(§5) were analyzed by Excel software using a method of non-linear regression and a one-site fitting program […]
developed in the laboratory of Dr. Pierre De Meyts (A.V. Groth and R.M. Shymko, Hagedorn Research […]
Institute, Denmark, a kind gift of Pierre De Meyts). […]
set up to 0.3 nM. Receptor binding assays were performed under conditions excluding the depletion of […]
(§6) calculated using the two-tailed t test. […]
Following the incubation, the cells were washed twice with ice-cold binding buffer and solubilized with 0.1 M NaOH. Cell-associated radioactivity was counted using the Gamma Counter Wizard 1470 (Perkin Elmer). Binding data were analyzed by and the dissociation constant (Kd) was determined with GraphPad Prism 5 using a non-linear regression, a one-site fitting program and taking into account potential depletion of free ligand.
Each binding curve was determined […]

Test [2] addresses T2, IR-A (Homo sapiens, UniProt P06213).
T2 construct: host or cells: human IM-9 lymphocytes
The test is described as follows: Whole-cell receptor-binding assay, IR-A in IM-9 lymphocytes. As to conditions: as E1; measurement series ≈; read-out: IR-A Kd ± S.D. (n).
Excerpt: as §1, §2
The extent of iodination in a specific position in the three fractions containing iodinated Tyr residues
was approximated by comparing the area of peaks corresponding to peptides containing TyrB16,
as §3
Human IM-9 lymphocytes (containing IR-A) and IGF-1R null mouse embryonic fibroblasts,
stably transfected with either human IR-B or human IGF-1R, were employed for whole cell receptor-
binding assay as described previously (3-5).
binding buffer (100 mM HEPES, 100 mM NaCl, 5 mM KCl, 1.3 mM MgSO4, 1 mM EDTA, 10 mM
glucose, 15 mM NaOAc, 1 % w/v BSA, pH 7.6). After incubation 2 x 200 µL were centrifuged at
as §4
Radioactive pellets were counted using the Gamma Counter Wizard 1470 (Perkin Elmer). Binding data
as §5, §6

The target in test [3] is T2, IR-A. The test is described as follows: Association, dissociation and accelerated dissociation kinetics of 125I-labeled ligands on IR-A in IM-9 cells. It counts as binding. The protocol:
(§7) For details, see supporting information.
(§8) HEPES binding buffer. The use of bovine serum albumin in the binding buffer (e.g. Sigma-Aldrich […]
(§9) Following the incubation, the cells were washed twice with ice-cold binding buffer and solubilized with 0.1 M NaOH. Cell-associated radioactivity was counted using the Gamma Counter Wizard 1470 (Perkin […]
(§10) Each binding curve was determined
(§11) For dose-response curves for accelerated dissociation the cells (3 x 10^7/mL) in HEPES binding buffer were preincubated with the radio-labeled ligand (about 2500 Ci/mmol, 150,000 cpm/mL, about 0.03 nM) for 2.5 hours at 15°C. After the preincubation, the suspension was centrifuged at 1000 x g, 4°C for 5 min and the supernatant containing the unbound radioactivity was discarded. The pellet was resuspended in the initial volume of buffer.

The target of test [4] is T1, IGF-1R. Briefly: Association, dissociation and accelerated dissociation kinetics of 125I-labeled ligands on IGF-1R in CHO-R+ cells. The class given is binding. As to conditions: for (d1) dissociation rate at maximum acceleration ± S.D., IGF-1R / dissociation rate (measured) ± S.D., IGF-1R: 15°C; for (d1) dissociation rate at maximum acceleration ± S.D., IGF-1R: dissociation of 125I-labeled ligand in the presence of 170 nM cold ligand (17 μM for insulin), monoexponential decay fit; for dissociation rate (measured) ± S.D., IGF-1R: dissociation of 125I-labeled ligand without cold ligand; for Shape of dose-response curve for accelerated dissociation, IGF-1R: 125I-labeled ligand preincubated […] at 15°C, cold ligand 0.001 nM-10 µM for 30 min at 15°C. The protocol:
as §7, §8, §9, §10, §11

For test [5], the target named is T1, IGF-1R. Briefly: Ligand-dose response IGF-1R autophosphorylation, In-Cell Western assay. It counts as cell-based. Conditions: 0.1-100 nM ligand, 20 min, relative to 10 nM IGF-1.
Protocol: Ligand–dose response IGF-1R autophosphorylation levels for selected analogs were determined, using the In-Cell Western assay adapted for chemiluminescence as described ([34]). […] Experiments were repeated at least four times. Log(agonist) versus response curve fitting of data was carried out with GraphPad Prism 5.
Mean ± S.D. (n ≥ 4) values were calculated.
one-way analysis of variance (ANOVA) with Dunnett’s test comparing all analogs versus control i.e.
Ligand-dose response IGF-1R autophosphorylation levels for selected analogs were determined, using In-Cell Western assay adapted for chemiluminiscence as described in (6). The IGF-1R cells were plated at 20,000 cells/well in white 96-well Brand plates cell grade (Brand GMBH, Germany) and incubated for 24 hours. Cells were afterwards starved for 4 hours in serum-free media and stimulated with dilutions of ligands (0-100 nM) for 20 min. After the incubation, the medium was discarded and the cells were fixed in 3.75 % v/v freshly prepared formaldehyde for 20 min. […]
Then plates were thoroughly washed with TBS and incubated with peroxidase-labeled anti-rabbit secondary antibody (Sigma) for 1 hour at room temperature, and washed again. SuperSignal West Femto maximum sensitivity substrate was added to each well and chemiluminiscence was detected using the ChemiDoc MP Imaging System after 5 min. […]
Test [6] has as its target T1, IGF-1R. The test is described as follows: Receptor phosphorylation assay (immunoblotting), IGF-1R-transfected mouse fibroblasts (R+39). The class given is cell-based. As to conditions: 10 nM ligand, 10 min, n ≥ 4. An excerpt: For details, see supporting information. […] Each experiment was repeated four times.
In general terms: Immunoblotting shows a protein as a band on a membrane.

Entries after “also recorded” stand apart in the source; their conditions may differ. Where two headings read alike, the source gives them in different places.

T2 sequence (P06213 28-1370 isoform P06213-2 limits assumed): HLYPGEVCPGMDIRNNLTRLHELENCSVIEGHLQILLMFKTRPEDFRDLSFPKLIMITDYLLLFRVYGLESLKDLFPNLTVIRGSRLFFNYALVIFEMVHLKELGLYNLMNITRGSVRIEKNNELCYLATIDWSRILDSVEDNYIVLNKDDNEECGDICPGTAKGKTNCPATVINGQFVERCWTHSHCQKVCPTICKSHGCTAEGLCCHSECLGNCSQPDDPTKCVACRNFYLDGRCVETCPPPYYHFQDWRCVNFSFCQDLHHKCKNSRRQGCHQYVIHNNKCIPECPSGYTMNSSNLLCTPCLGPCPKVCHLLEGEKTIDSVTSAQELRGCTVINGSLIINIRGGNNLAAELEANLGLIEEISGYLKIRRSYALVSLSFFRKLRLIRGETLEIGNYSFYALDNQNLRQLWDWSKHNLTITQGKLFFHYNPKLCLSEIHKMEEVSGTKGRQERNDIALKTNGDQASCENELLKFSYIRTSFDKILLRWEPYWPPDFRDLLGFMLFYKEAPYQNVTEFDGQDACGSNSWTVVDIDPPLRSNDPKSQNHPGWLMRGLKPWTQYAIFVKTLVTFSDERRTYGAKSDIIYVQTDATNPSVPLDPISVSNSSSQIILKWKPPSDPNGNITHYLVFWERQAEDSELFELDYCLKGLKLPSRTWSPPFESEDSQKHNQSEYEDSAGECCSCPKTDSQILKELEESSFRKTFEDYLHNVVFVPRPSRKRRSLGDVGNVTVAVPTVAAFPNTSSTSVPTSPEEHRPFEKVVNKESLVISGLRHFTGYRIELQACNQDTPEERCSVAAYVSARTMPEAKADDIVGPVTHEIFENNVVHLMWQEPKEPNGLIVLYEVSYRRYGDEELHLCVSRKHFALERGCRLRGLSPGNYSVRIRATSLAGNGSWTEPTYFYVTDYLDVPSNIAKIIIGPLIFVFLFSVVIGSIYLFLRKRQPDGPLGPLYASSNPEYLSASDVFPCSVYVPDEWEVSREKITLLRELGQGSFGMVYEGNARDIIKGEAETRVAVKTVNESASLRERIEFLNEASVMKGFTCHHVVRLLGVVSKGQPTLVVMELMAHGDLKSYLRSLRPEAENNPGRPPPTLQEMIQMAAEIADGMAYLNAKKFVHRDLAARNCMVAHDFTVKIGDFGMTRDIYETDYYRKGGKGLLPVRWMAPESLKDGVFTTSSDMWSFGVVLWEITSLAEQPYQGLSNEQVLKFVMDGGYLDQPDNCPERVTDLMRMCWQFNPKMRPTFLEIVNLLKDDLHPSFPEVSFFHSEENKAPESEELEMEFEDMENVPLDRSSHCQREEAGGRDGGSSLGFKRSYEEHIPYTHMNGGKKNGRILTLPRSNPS
T2 sequence (P06213 763-1382 partner limits assumed): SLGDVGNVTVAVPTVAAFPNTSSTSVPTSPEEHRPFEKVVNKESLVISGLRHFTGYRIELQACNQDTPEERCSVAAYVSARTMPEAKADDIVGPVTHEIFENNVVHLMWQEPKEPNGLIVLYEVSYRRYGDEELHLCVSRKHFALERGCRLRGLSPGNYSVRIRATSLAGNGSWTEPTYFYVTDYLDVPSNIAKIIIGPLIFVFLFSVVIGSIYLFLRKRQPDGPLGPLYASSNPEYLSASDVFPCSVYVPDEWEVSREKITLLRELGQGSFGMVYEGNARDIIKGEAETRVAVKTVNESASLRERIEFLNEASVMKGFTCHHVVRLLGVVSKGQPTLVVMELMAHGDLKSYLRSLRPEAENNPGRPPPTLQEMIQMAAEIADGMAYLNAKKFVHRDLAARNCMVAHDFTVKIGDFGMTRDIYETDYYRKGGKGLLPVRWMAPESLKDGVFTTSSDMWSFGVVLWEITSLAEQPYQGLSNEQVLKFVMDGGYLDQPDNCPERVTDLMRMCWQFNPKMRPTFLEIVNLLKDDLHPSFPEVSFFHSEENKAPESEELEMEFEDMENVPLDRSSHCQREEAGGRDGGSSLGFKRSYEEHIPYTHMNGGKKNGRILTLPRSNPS

Take “IGF-2: insulin-like growth factor 2, protein hormone closely related to insulin”: the Kd turned out to be 2.32 ± 1.24 nM in test [1] (IGF-1R null mouse embryonic fibroblasts transfected with human IGF-1R, competition with mono-125I-IGF-1 (about 0.01 nM), 16 h at 5°C, HEPES binding buffer, mean ± S.D. of n≥3 binding curves, measurement series #) and 2.92 ± 0.24 nM in test [2].

As to [D-His^B24, Gly^B31, Tyr^B32]-insulin, the Kd in test [1] (as E12, measurement series $, read-out: IGF-1R Kd ± S.D. (n)) was 0.89 ± 0.2 nM. Further, in test [1] (from Table 1 binding affinities), the “Increase of binding to IGF-1R compared with insulin” value is given as “about 150 fold”. Moreover, the “(d1) dissociation rate at maximum acceleration ± S.D., IR-A” value in test [3] (15°C, dissociation of 125I-labeled ligand in the presence of 170 nM cold ligand, monoexponential decay fit) amounted to 0.0432 ± 0.0032 min⁻¹. Moreover, in test [3] (15°C, dissociation of 125I-labeled ligand without cold ligand), the “dissociation rate (measured) ± S.D., IR-A” value came to 0.0017 ± 0.0002 min⁻¹. The “Shape of dose-response curve for accelerated dissociation, IR-A” value in test [3] (125I-labeled ligand preincubated […] at 15°C, cold ligand 0.001 nM-10 µM for 30 min at 15°C) is reported as “bell-shaped”. Besides, in test [4], the “(d1) dissociation rate at maximum acceleration ± S.D., IGF-1R” value stood at 0.0203 ± 0.0038 min⁻¹; the “dissociation rate (measured) ± S.D., IGF-1R” value was 0.0064 ± 0.0035 min⁻¹; the “Shape of dose-response curve for accelerated dissociation, IGF-1R” value is on record as “sigmoid”. Besides, the “Dose-response of IGF-1R stimulation” value in test [5] was “equipotent to IGF-2”. Further, in test [6], the “Ability to stimulate IGF-1R phosphorylation” value is “increased stimulation of the receptor; also recorded: to an extent approximating IGF-2”.

Take insulin [reference compound]: in test [4], the “(d1) dissociation rate at maximum acceleration ± S.D., IGF-1R” value was 0.0069 ± 0.0004 min⁻¹; the “dissociation rate (measured) ± S.D., IGF-1R” value stood at 0.0026 ± 0.0010 min⁻¹; the “Shape of dose-response curve for accelerated dissociation, IGF-1R” value was “sigmoid”.
